What was measured:
[1] = target: T1, human PR-B (Homo sapiens, UniProt P06401); assay: Co-transfection assay, PR antagonist activity; type: cell-based; settings: for Emax: CV-1, read-out: PR Antagonist CV-1 Cells Efficacy (%);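 on all read-outs here: monkey kidney fibroblasts co-transfected with receptor expression plasmid and hormone-responsive luciferase reporter, antagonism read as reduced luciferase signal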
T1 construct: expressed in transfected cells; host or cells: CV-1 cells (African green monkey kidney fibroblasts), transient transfection
T1 sequence (P06401 1-933): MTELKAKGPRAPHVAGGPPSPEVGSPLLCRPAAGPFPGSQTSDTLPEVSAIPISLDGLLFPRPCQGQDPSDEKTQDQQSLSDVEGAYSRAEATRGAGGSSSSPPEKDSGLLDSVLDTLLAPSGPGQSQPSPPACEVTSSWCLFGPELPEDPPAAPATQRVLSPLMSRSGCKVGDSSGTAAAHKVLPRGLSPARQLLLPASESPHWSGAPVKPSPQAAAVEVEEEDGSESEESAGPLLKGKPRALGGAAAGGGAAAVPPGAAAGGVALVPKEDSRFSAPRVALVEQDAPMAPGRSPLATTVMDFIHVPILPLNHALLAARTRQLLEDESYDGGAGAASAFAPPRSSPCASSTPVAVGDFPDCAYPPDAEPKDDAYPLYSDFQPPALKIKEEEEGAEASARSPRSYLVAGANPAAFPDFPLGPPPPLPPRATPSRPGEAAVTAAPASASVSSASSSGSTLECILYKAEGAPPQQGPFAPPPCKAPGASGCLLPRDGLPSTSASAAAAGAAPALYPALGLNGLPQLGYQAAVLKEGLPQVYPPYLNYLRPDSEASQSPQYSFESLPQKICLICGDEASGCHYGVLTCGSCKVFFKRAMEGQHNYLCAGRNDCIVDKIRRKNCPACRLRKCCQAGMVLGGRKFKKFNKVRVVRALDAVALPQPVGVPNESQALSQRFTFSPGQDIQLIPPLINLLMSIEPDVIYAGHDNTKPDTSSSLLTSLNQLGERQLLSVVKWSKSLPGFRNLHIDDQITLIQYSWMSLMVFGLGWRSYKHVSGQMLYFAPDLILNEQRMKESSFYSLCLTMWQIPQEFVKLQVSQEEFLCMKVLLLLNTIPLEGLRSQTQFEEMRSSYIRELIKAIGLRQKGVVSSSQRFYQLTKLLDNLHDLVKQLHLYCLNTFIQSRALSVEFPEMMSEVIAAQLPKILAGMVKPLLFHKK

[2] = target: T1, human PR-B; assay: Co-transfection assay, PR agonist activity; type: cell-based; settings: for Emax: CV-1, read-out: PR Agonist CV-1 Cells Efficacy (%);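 on all read-outs here: CV-1 cells (African green monkey kidney) co-transfected with receptor plasmid and hormone-responsive firefly luciferase reporter, agonism read as compound-dependent rise in luciferase signal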

Compound | Emax [1] [%] | Emax [2] [%] | PR Antagonist CV-1 Cells Efficacy (%) ([1]; CV-1 cells, percent maximal inhibition, progesterone at its EC50) | PR Agonist CV-1 Cells Efficacy (%) ([2]; CV-1 cells, percent maximal response relative to reference agonist progesterone) | PR Agonist CV-1 Cells Efficacy (%) ([2]; cv-1 cells)
CC1=CC(C)(C)Nc2ccc(-c3nn(C)cc3Br)cc21 [Compound 104, 6-(4-Bromo-1-methylpyrazol-3-yl)-1,2-dihydro-2,2,4-trimethylquinoline] | 71 | 39 |  |  | 
CC1(C)C=Cc2c(ccc3c2/C(=C/c2ccccc2)Oc2ccc(Cl)cc2-3)N1 [Compound 368, (Z)-5-Benzylidene-9-chloro-1,2-dihydro-2,2-dimethyl-5H-chromeno[3,4-f]quinoline] | < 20 | 183 |  |  | 
CCCO[C@@H]1[C@@H](C)c2c(ccc3c2[C@H](c2ccc(Cl)cc2)Oc2ccccc2-3)NC1(C)C (relative stereo) [Compound 400, (R/S-3l,4u,5u)-5-(4-Chlorophenyl)-1,2,3,4-tetrahydro-3-propyloxy-2,2,4-trimethyl-5H-chromeno[3,4-f]quinoline] | 68 | < 20 |  |  | 
CCCCC1Oc2ccccc2-c2ccc3c(c21)C(C)C(O)(CCCC)C(C)(C)N3 (racemic) [Compound 385, (R/S)-3,5-Dibutyl-1,2,3,4-tetrahydro-3-hydroxy-2,2,4-trimethyl-5H-chromeno[3,4-f]quinoline] | 45 | 27 |  |  | 
CC1=CC(C)(C)Nc2ccc(-c3cccc(Cl)c3Cl)cc21 [Compound 109, 6-(2,3-Dichlorophenyl)-1,2-dihydro-2,2,4-trimethylquinoline] | 87 | < 20 |  |  | 
CC1CC(C)(C)Nc2ccc(-c3cc(F)cc(C#N)c3)cc21 (racemic) [Compound 455, (R/S)-6-(3-Cyano-5-fluorophenyl)-1,2,3,4-Tetrahydro-2,2,4-trimethylquinoline] | 76 | < 20 |  |  | 
CC1C(=O)C(C)(C)Nc2ccc(-c3cc(F)cc(C#N)c3)cc21 (stereo not drawn) [Compound 286, 6-(3-Cyano-5-fluorophenyl)-1,2-dihydro-2,2,4-trimethyl-3-quinolone] | 84 | < 20 |  |  | 
CC1=CC(C)(C)Nc2ccc3c(c21)/C(=C/c1ccc(F)cc1)Oc1ccccc1-3 [Compound 221, (Z)-5-(4-Fluorobenzylidene)-1,2-dihydro-2,2,4-trimethyl-5H-chromeno[3,4-f]quinoline] | < 20 | 105 |  |  | 
CC1=CC(C)(C)Nc2ccc3c(c21)/C(=C/c1ccccc1F)Oc1ccccc1-3 [Compound 228, (Z)-5-(2-Fluorobenzylidene)-1,2-dihydro-2,2,4-trimethyl-5H-chromeno[3,4-f]quinoline] | < 20 | 114 |  |  | 
CC1=CC(C)(C)Nc2cc(C)c3c(c21)/C(=C/c1ccccc1)Oc1ccc(F)cc1-3 [Compound 377, (Z)-5-Benzylidene-9-fluoro-1,2-dihydro-2,2,4,11-tetramethyl-5H-chromeno[3,4-f]quinoline] | < 20 | 101 |  |  | 
CC1=CC(C)(C)Nc2ccc(-c3csc(C#N)c3)cc21 [Compound 452, 6-(5-Cyano-3-thienyl)-1,2-dihydro-2,2,4-trimethylquinoline] | 70 | 119 |  |  | 
CC1C(=O)C(C)(C)Nc2ccc3c(c21)/C(=C/c1cccc(F)c1)Oc1ccccc1-3 (racemic) [Compound 389, (Z)-(R/S)-5-(3-Fluorobenzylidene)-1,2,3,4-tetrahydro-2,2,4-trimethyl-5H-chromeno[3,4-f]-3-quinolinone] | < 20 | 133 |  |  | 
CC1(C)C=Cc2c(ccc3c2c(=O)oc2ccc(Cl)cc23)N1 [Compound 313, 9-Chloro-1,2-dihydro-2,2-dimethyl-5-coumarino[3,4-f]quinoline] |  |  | 94 | 26 | 
CC1=CC(C)(C)Nc2ccc(-c3cc(F)cc(C#N)c3)cc21 [Compound 271, 6-(3-Cyano-5-fluorophenyl)-1,2-dihydro-2,2,4-trimethylquinoline] |  |  |  |  | na (key: na = not active (i.e. efficacy of <20 and potency of >10,000))
CC(=O)[C@H]1CC[C@H]2[C@@H]3CCC4=CC(=O)CC[C@]4(C)[C@H]3CC[C@]12C [Prog, progesterone, reference compound] | < 20 | 100 |  |  | 
CC1=CC(C)(C)Nc2ccc3c(c21)/C(=C/c1ccccc1C)Oc1ccc(F)cc1-3 [Compound 374, (Z)-9-Fluoro-1,2-dihydro-2,2,4-trimethyl-5-(2-methylbenzylidene)-5H-chromeno[3,4-f]quinoline] | < 20 | 231 |  |  | 
CC1=CC(C)(C)Nc2ccc(-n3cnc(Cl)c3Cl)cc21 [Compound 103, 6-(4,5-Dichloroimidazol-1-yl)-1,2-dihydro-2,2,4-trimethylquinoline] | 91 | < 20 |  |  | 
CC1=CC(C)(C)Nc2ccc3c(c21)C(C)Oc1ccc(Cl)cc1-3 (racemic) [Compound 332, (R/S)-9-Chloro-1,2-dihydro-2,2,4,5-tetramethyl-5H-chromeno[3,4-f]quinoline] | < 20 | 138 |  |  | 
CC1=CC(C)(C)Nc2ccc3c(c21)/C(=C/c1ccccc1)Oc1ccccc1-3 [Compound 220, (Z)-5-Benzylidene-1,2-dihydro-2,2,4-trimethyl-5H-chromeno[3,4-f]quinoline] | < 20 | 147 |  |  | 
CC1=CC(C)(C)Nc2c(F)cc(-c3cccc([N+](=O)[O-])c3)cc21 [Compound 291, 8-Fluoro-1,2-dihydro-2,2,4-trimethyl-6-(3-nitrophenyl)quinoline] | 79 | < 20 |  |  | 
CC1(C)Nc2ccc3c(c2C(=O)C1(C)C)C(c1ccc(Cl)cc1)Oc1ccccc1-3 (racemic) [Compound 379, (R/S)-5-(4-Chlorophenyl)-1,2,3,4-tetrahydro-2,2,3,3-tetramethyl-5H-chromeno[3,4-f]-4-quinolinone] | 87 | < 20 |  |  | 
CC1=CC(C)(C)Nc2ccc3c(c21)COc1c(Cl)cccc1-3 [Compound 331, (R/S)-7-Chloro-1,2-dihydro-2,2,4-trimethyl-5H-chromeno[3,4-f]quinoline] | 88 | < 20 |  |  | 
CC1=CC(C)(C)Nc2ccc(-c3cccc([N+](=O)[O-])c3)c(Cl)c21 [Compound 310, 5-Chloro-1,2-dihydro-2,2,4-trimethyl-6-(3-nitrophenyl)quinoline] | 70 | < 20 |  |  | 
